{"source": "patent US20260022142A1", "about": "“MACROCYCLIC IMMUNOMODULATORS” (Bristol-Myers Squibb Company, priority 2022, published 2026)", "target": "T1, PD-1/PD-L1 interaction (PE-labeled human PD-L1-Ig binding to Jurkat cell line over-expressing human PD-1) (Homo sapiens, UniProt Q15116)", "T1 construct": "expressed in transfected cells; host or cells: Jurkat", "T1 sequence (Q15116 25-288)": "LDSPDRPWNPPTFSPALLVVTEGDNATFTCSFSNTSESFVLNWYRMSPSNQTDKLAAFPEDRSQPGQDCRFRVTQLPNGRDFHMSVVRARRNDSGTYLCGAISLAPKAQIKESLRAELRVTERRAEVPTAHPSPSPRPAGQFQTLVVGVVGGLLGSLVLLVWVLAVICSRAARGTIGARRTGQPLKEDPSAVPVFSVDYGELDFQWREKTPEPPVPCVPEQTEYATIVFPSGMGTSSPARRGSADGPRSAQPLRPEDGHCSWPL", "experiment": "Jurkat-PD-1 Cell Binding High-Content Screening Assay (CBA)", "assay_type": "cell-based", "settings": "Jurkat cell line over-expressing human PD-1; PE-labeled PD-L1-Ig 20 nM final; read-out: Jurkat hPD1-PDL1 IC50", "procedure,_shortened": "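Jurkat-hPD-1 cells, DMEM/10% FCS; cpd 2 h 37° C; PE-PD-L1-Ig 20 nM final, 1 h; 4% PFA fix + Hoechst 33342, 3× dPBS wash; high-content imaging read-out.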", "note": "Bridge positions count the residues as written; N and C are the ends. Square brackets hold non-standard residues; d marks the D form. Peptide text beside a SMILES is read from it. * marks the point of attachment. Phe(F5) = N[C@@H](Cc1c(F)c(F)c(F)c(F)c1F)C(=O)O; Ala(morpholin-4-yl) = N[C@@H](CN1CCOCC1)C(=O)O; Phe(4-COOH) = N[C@@H](Cc1ccc(C(=O)O)cc1)C(=O)O; Bip = N[C@@H](Cc1ccc(-c2ccccc2)cc1)C(=O)O; Phe(2-Cl) = N[C@@H](Cc1ccccc1Cl)C(=O)O; Phe(3-Me) = Cc1cccc(C[C@H](N)C(=O)O)c1; Phe(2-Me) = Cc1ccccc1C[C@H](N)C(=O)O; Val(3-OH) = CC(C)(O)[C@H](N)C(=O)O; Aha = [N-]=[N+]=NCC[C@H](N)C(=O)O; hCha = N[C@@H](CCC1CCCCC1)C(=O)O; 4Pal = N[C@@H](Cc1ccncc1)C(=O)O; Cha = N[C@@H](CC1CCCCC1)C(=O)O; Ahp(2) = CCCCC[C@H](N)C(=O)O; Carboxymethyl = O=C(O)C*; Orn = NCCC[C@H](N)C(=O)O; Pra = C#CC[C@H](N)C(=O)O; Aun = NCCCCCCCCCCC(=O)O; Dab = NCC[C@H](N)C(=O)O; Dap = NC[C@H](N)C(=O)O; AEEA = NCCOCCOCC(=O)O"}
{"smiles": "Cc1cccc(C[C@@H]2NC(=O)[C@H](CC(=O)O)NC(=O)[C@H](Cc3ccc(OCC(=O)O)cc3)NC(=O)[C@H](CN)NC(=O)CSC[C@@H](C(=O)N[C@@H](CCN)C(=O)NCCOCCOCC(=O)NCCCCCCCCCCC(=O)O)NC(=O)[C@H](CCC(=O)O)NC(=O)[C@H](C(C)C)NC(=O)[C@H](Cc3c(F)c(F)c(F)c(F)c3F)NC(=O)[C@H](CCN)NC(=O)[C@@H](CC(C)C)NC(=O)[C@H](CCCN)NC(=O)[C@H](Cc3ccc(OCC(=O)O)cc3)NC(=O)[C@H](Cc3ccc(-c4ccccc4)cc3)NC(=O)[C@H](Cc3ccc(C(=O)O)cc3)NC2=O)c1", "note": "[Compound 1273] ({CH2CO}-[Dap]Y(Carboxymethyl)D[Phe(3-Me)][Phe(4-COOH)][Bip]Y(Carboxymethyl)[Orn][dL][Dab][Phe(F5)]VEC[Dab][AEEA][Aun]-OH; thioether N-14)", "values": [{"measurement": "IC50", "value": 331, "unit": "nM"}]}
{"smiles": "Cc1cccc(C[C@@H]2NC(=O)[C@H](CC(=O)O)NC(=O)[C@H](Cc3ccc(OCC(=O)O)cc3)NC(=O)[C@H](CN)NC(=O)CSC[C@@H](C(=O)N[C@@H](CCN)C(=O)NCCOCCOCC(=O)NCCCCCCCCCCC(=O)O)NC(=O)[C@H](CCC(=O)O)NC(=O)[C@H](C(C)C)NC(=O)[C@H](Cc3ccccc3C)NC(=O)[C@H](CCN)NC(=O)[C@@H](CC(C)C)NC(=O)[C@H](CCCN)NC(=O)[C@H](Cc3ccc(OCC(=O)O)cc3)NC(=O)[C@H](Cc3ccc(-c4ccccc4)cc3)NC(=O)[C@H](Cc3ccc(C(=O)O)cc3)NC2=O)c1", "note": "[Compound 1274] ({CH2CO}-[Dap]Y(Carboxymethyl)D[Phe(3-Me)][Phe(4-COOH)][Bip]Y(Carboxymethyl)[Orn][dL][Dab][Phe(2-Me)]VEC[Dab][AEEA][Aun]-OH; thioether N-14)", "values": [{"measurement": "IC50", "value": 9.8, "unit": "nM"}]}
{"smiles": "CCCCC[C@@H]1NC(=O)[C@H](CCN)NC(=O)[C@@H](CC(C)C)NC(=O)[C@H](CCCN)NC(=O)[C@H](Cc2ccc(OCC(=O)O)cc2)NC(=O)[C@H](Cc2ccc(-c3ccccc3)cc2)NC(=O)[C@H](Cc2ccc(C(=O)O)cc2)NC(=O)[C@H](Cc2cccc(C)c2)NC(=O)[C@H](CC(=O)O)NC(=O)[C@H](Cc2ccc(OCC(=O)O)cc2)NC(=O)[C@H](CN)NC(=O)CSC[C@@H](C(=O)N[C@@H](CCN)C(=O)NCCOCCOCC(=O)NCCCCCCCCCCC(=O)O)NC(=O)[C@H](CCC(=O)O)NC(=O)[C@H](C(C)C)NC1=O", "note": "[Compound 1275] ({CH2CO}-[Dap]Y(Carboxymethyl)D[Phe(3-Me)][Phe(4-COOH)][Bip]Y(Carboxymethyl)[Orn][dL][Dab][Ahp(2)]VEC[Dab][AEEA][Aun]-OH; thioether N-14)", "values": [{"measurement": "IC50", "value": 47.5, "unit": "nM"}]}
{"smiles": "Cc1cccc(C[C@@H]2NC(=O)[C@H](CC(=O)O)NC(=O)[C@H](Cc3ccc(OCC(=O)O)cc3)NC(=O)[C@H](CN)NC(=O)CSC[C@@H](C(=O)N[C@@H](CCN)C(=O)NCCOCCOCC(=O)NCCCCCCCCCCC(=O)O)NC(=O)[C@H](CCC(=O)O)NC(=O)[C@H](C(C)C)NC(=O)[C@H](CCC3CCCCC3)NC(=O)[C@H](CCN)NC(=O)[C@@H](CC(C)C)NC(=O)[C@H](CCCN)NC(=O)[C@H](Cc3ccc(OCC(=O)O)cc3)NC(=O)[C@H](Cc3ccc(-c4ccccc4)cc3)NC(=O)[C@H](Cc3ccc(C(=O)O)cc3)NC2=O)c1", "note": "[Compound 1276] ({CH2CO}-[Dap]Y(Carboxymethyl)D[Phe(3-Me)][Phe(4-COOH)][Bip]Y(Carboxymethyl)[Orn][dL][Dab][hCha]VEC[Dab][AEEA][Aun]-OH; thioether N-14)", "values": [{"measurement": "IC50", "value": 49.9, "unit": "nM"}]}
{"smiles": "Cc1cccc(C[C@@H]2NC(=O)[C@H](CC(=O)O)NC(=O)[C@H](Cc3ccc(OCC(=O)O)cc3)NC(=O)[C@H](CN)NC(=O)CSC[C@@H](C(=O)N[C@@H](CCN)C(=O)NCCOCCOCC(=O)NCCCCCCCCCCC(=O)O)NC(=O)[C@H](CCC(=O)O)NC(=O)[C@H](C(C)C)NC(=O)[C@H](Cc3ccccc3Cl)NC(=O)[C@H](CCN)NC(=O)[C@@H](CC(C)C)NC(=O)[C@H](CCCN)NC(=O)[C@H](Cc3ccc(OCC(=O)O)cc3)NC(=O)[C@H](Cc3ccc(-c4ccccc4)cc3)NC(=O)[C@H](Cc3ccc(C(=O)O)cc3)NC2=O)c1", "note": "[Compound 1277] ({CH2CO}-[Dap]Y(Carboxymethyl)D[Phe(3-Me)][Phe(4-COOH)][Bip]Y(Carboxymethyl)[Orn][dL][Dab][Phe(2-Cl)]VEC[Dab][AEEA][Aun]-OH; thioether N-14)", "values": [{"measurement": "IC50", "value": 14.4, "unit": "nM"}]}
{"smiles": "C#CC[C@H](NC(=O)[C@H](CCN)NC(=O)[C@@H]1CSCC(=O)N[C@@H](Cc2ccncc2)C(=O)N[C@@H](Cc2ccc(OCC(=O)O)cc2)C(=O)N[C@@H](CC(=O)O)C(=O)N[C@@H](Cc2cccc(C)c2)C(=O)N[C@@H](Cc2ccc(OC)cc2)C(=O)N[C@@H](Cc2ccc(-c3ccccc3)cc2)C(=O)N[C@@H](Cc2ccc(OCC(=O)O)cc2)C(=O)N[C@@H](CCCN)C(=O)N[C@H](CC(C)C)C(=O)N[C@@H](CCN)C(=O)N[C@@H](CC2CCCCC2)C(=O)N[C@@H](C(C)(C)O)C(=O)N[C@@H](CO)C(=O)N1)C(=O)NCCCCCCCCCCC(=O)O", "note": "[Compound 1278] ({CH2CO}-[4Pal]Y(Carboxymethyl)D[Phe(3-Me)]Y(Me)[Bip]Y(Carboxymethyl)[Orn][dL][Dab][Cha][Val(3-OH)]SC[Dab][Pra][Aun]-OH; thioether N-14)", "values": [{"measurement": "IC50", "value": 140, "unit": "nM"}]}
{"smiles": "C#CC[C@H](NC(=O)[C@H](CCN)NC(=O)[C@@H]1CSCC(=O)N[C@@H](CN2CCOCC2)C(=O)N[C@@H](Cc2ccc(OCC(=O)O)cc2)C(=O)N[C@@H](CC(=O)O)C(=O)N[C@@H](Cc2cccc(C)c2)C(=O)N[C@@H](Cc2ccc(OCC(=O)O)cc2)C(=O)N[C@@H](Cc2ccc(-c3ccccc3)cc2)C(=O)N[C@@H](Cc2ccc(OCC(=O)O)cc2)C(=O)N[C@@H](CCCN)C(=O)N[C@H](CC(C)C)C(=O)N[C@@H](CCN)C(=O)N[C@@H](CC2CCCCC2)C(=O)N[C@@H](C(C)(C)O)C(=O)N[C@@H](CO)C(=O)N1)C(=O)NCCCCCCCCCCC(=O)O", "note": "[Compound 1279] ({CH2CO}-[Ala(morpholin-4-yl)]Y(Carboxymethyl)D[Phe(3-Me)]Y(Carboxymethyl)[Bip]Y(Carboxymethyl)[Orn][dL][Dab][Cha][Val(3-OH)]SC[Dab][Pra][Aun]-OH; thioether N-14)", "values": [{"measurement": "IC50", "value": 9, "unit": "nM"}]}
{"smiles": "COc1ccc(C[C@@H]2NC(=O)[C@H](Cc3cccc(C)c3)NC(=O)[C@H](CC(=O)O)NC(=O)[C@H](Cc3ccc(OCC(=O)O)cc3)NC(=O)[C@H](Cc3ccncc3)NC(=O)CSC[C@@H](C(=O)N[C@@H](CCN)C(=O)N[C@@H](CCN=[N+]=[N-])C(=O)NCCCCCCCCCCC(=O)O)NC(=O)[C@H](CO)NC(=O)[C@H](C(C)(C)O)NC(=O)[C@H](CC3CCCCC3)NC(=O)[C@H](CCN)NC(=O)[C@@H](CC(C)C)NC(=O)[C@H](CCCN)NC(=O)[C@H](Cc3ccc(OCC(=O)O)cc3)NC(=O)[C@H](Cc3ccc(-c4ccccc4)cc3)NC2=O)cc1", "note": "[Compound 1280] ({CH2CO}-[4Pal]Y(Carboxymethyl)D[Phe(3-Me)]Y(Me)[Bip]Y(Carboxymethyl)[Orn][dL][Dab][Cha][Val(3-OH)]SC[Dab][Aha][Aun]-OH; thioether N-14)", "values": [{"measurement": "IC50", "value": 243, "unit": "nM"}]}
